Measured values as given in ChEMBL document CHEMBL6083255, “Synthesis and biological evaluation of novel isobenzofuran-1(3H)-one derivatives as antidepressant agents” (2024).
Activity calls are given as the source filed them. The calls are words filed in the database; no cut-off is given here.

Assays:
RBL-2H3 [1] = assay: Cytotoxicity against Wistar rat RBL-2H3 cells assessed as cell viability at 5 uM incubated for 24 hrs by MTT assay; assay type: functional; settings: read-out: Activity
[2] = target: Sodium-dependent serotonin transporter (Rattus norvegicus) (UniProt P31652); assay: Inhibition of SERT in Wistar rat RBL-2H3 cells assessed as decrease in fluorescence intensity at 10 uM preincubated for 2 hrs followed by APP+ addition and measured after 1 hr by fluorescence based assay; assay type: cell-based; settings: time 3.0 hrs
RBL-2H3 [3] = assay: Cytotoxicity against Wistar rat RBL-2H3 cells assessed as cell viability at 25 uM incubated for 24 hrs by MTT assay; assay type: functional; settings: read-out: Activity
RBL-2H3 [4] = assay: Cytotoxicity against Wistar rat RBL-2H3 cells assessed as cell viability at 125 uM incubated for 24 hrs by MTT assay; assay type: functional; settings: read-out: Activity
RBL-2H3 [5] = assay: Cytotoxicity against Wistar rat RBL-2H3 cells assessed as cell viability at 1 uM incubated for 24 hrs by MTT assay; assay type: functional; settings: read-out: Activity
RBL-2H3 [6] = assay: Induction of cell death in Wistar rat RBL-2H3 cells assessed as cell viability over 20 uM by MTT assay; assay type: functional, cell-based
RBL-2H3 [7] = assay: Cytotoxicity against Wistar rat RBL-2H3 cells assessed as cell viability over 20 uM by MTT assay; assay type: functional, cell-based
CHO-K1 [8] = assay: Antagonist activity at CCK-B receptor in CHO-K1 cells at 50 uM incubated for 90 sec by microplate reader assay; assay type: cell-based; settings: Cricetulus griseus
CHO-K1 [9] = assay: Agonist activity at mu opioid receptor in CHO-K1 cells assessed as increase in intracellular fluorescence intensity at 50 uM incubated for 90 sec by microplate reader assay; assay type: cell-based; settings: Cricetulus griseus
CHO-K1 [10] = assay: Agonist activity at CCK-B receptor in CHO-K1 cells incubated for 90 sec by microplate reader assay; assay type: cell-based; settings: Cricetulus griseus
CHO-K1 [11] = assay: Antagonist activity at mu opioid receptor in CHO-K1 cells assessed as intracellular fluorescence intensity at 50 uM incubated for 2 mins by microplate reader assay; assay type: cell-based; settings: Cricetulus griseus
CHO-K1 [12] = assay: Agonist activity at mu opioid receptor in CHO-K1 cells assessed as increase in intracellular fluorescence intensity at 30 uM incubated for 90 sec by microplate reader assay; assay type: cell-based; settings: Cricetulus griseus, filed as agonist

Chain of Sodium-dependent serotonin transporter (Rattus norvegicus) (P31652 whole entry): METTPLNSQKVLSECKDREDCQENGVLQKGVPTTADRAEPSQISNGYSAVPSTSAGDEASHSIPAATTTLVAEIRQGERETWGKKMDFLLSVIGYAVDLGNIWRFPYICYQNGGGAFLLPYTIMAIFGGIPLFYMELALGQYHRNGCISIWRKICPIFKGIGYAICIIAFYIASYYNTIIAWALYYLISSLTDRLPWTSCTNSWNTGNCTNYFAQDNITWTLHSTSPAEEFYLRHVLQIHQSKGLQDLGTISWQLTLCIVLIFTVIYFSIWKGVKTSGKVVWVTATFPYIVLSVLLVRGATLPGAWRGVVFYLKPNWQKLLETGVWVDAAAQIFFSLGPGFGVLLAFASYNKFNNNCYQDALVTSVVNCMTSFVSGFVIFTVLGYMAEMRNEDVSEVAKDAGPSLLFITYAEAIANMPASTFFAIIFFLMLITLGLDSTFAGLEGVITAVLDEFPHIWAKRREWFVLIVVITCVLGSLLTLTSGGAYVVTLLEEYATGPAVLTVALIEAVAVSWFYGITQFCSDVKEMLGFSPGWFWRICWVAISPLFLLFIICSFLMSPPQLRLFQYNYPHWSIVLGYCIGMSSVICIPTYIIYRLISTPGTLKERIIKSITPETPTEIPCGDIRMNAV

Row | SMILES | viability at 5 µM (RBL-2H3 [1]) [%] | Activity [2] | viability at 25 µM (RBL-2H3 [3]) [%] | viability at 125 µM (RBL-2H3 [4]) [%] | viability at 1 µM (RBL-2H3 [5]) [%] | Activity (RBL-2H3 [6]) | Activity (RBL-2H3 [7]) | Activity (CHO-K1 [8]) | Activity (CHO-K1 [9]) | Activity (CHO-K1 [10]) | Activity (CHO-K1 [11]) | Activity (CHO-K1 [11]; filed as antagonist) | Activity (CHO-K1 [12])
1 | CC1CCCN(CC2(c3ccccc3)OC(=O)c3ccccc32)C1 (stereo not drawn) | 101 | Active | 116 | 141 | 92.7 |  |  |  |  |  |  |  | 
2 | CNCCC(Oc1ccc(C(F)(F)F)cc1)c1ccccc1 (stereo not drawn) |  | Active |  |  |  | Active | Active |  |  |  |  |  | 
3 | Cc1ccc(C2(CN3CCCC3)OC(=O)c3ccccc32)cc1 (stereo not drawn) | 95.5 | Active | 100 | 122 | 94.8 |  |  |  |  |  |  |  | 
4 | O=C1OC(CN2CCCCC2)(c2ccc(Cl)cc2)c2ccccc21 (stereo not drawn) | 98.1 | Active; Activity Stronger Than Fluoxetine | 107 | 125 | 97.5 |  |  | inactive | inactive | inactive | inactive |  | 
5 | CC(=O)N1CCN(CC2(c3ccccc3)OC(=O)c3ccccc32)CC1 (stereo not drawn) | 109 | inactive | 129 | 165 | 102 |  |  |  |  |  |  |  | 
6 | CCOC(=O)C1CCN(CC2(c3ccc(C)cc3)OC(=O)c3ccccc32)CC1 (stereo not drawn) | 108 | inactive | 125 | 157 | 102 |  |  |  |  |  |  |  | 
7 | CCOC(=O)C1CCN(CC2(c3ccccc3)OC(=O)c3ccccc32)CC1 (stereo not drawn) | 105 | inactive | 130 | 178 | 99.7 |  |  |  |  |  |  |  | 
8 | CC1CCCN(CC2(c3ccc(Cl)cc3)OC(=O)c3ccccc32)C1 (stereo not drawn) | 98 | Active | 102 | 104 | 99.2 |  |  |  |  |  |  |  | 
9 | O=C1OC(CN2CCCC2)(c2ccccc2)c2ccccc21 (stereo not drawn) | 139 | Active | 133 | 181 | 119 |  |  |  |  |  |  |  | 
10 | Cc1ccc(C2(CN3CCCC(C)C3)OC(=O)c3ccccc32)cc1 (stereo not drawn) | 101 | inactive | 121 | 157 | 97.6 |  |  |  |  |  |  |  | 
11 | C=CCN1CC[C@]23c4c5ccc(O)c4O[C@H]2C(=O)CC[C@@]3(O)[C@H]1C5 |  |  |  |  |  |  |  |  |  |  |  | Active | 
12 | CC(=O)N1CCN(CC2(c3ccc(C)cc3)OC(=O)c3ccccc32)CC1 (stereo not drawn) | 97.2 | Active | 119 | 120 | 93.3 |  |  |  |  |  |  |  | 
13 | O=C1OC(CN2CCCCCC2)(c2ccc(Cl)cc2)c2ccccc21 (stereo not drawn) | 109 | Active | 119 | 144 | 104 |  |  |  |  |  |  |  | 
14 | CC(=O)N1CCN(CC2(c3ccc(Cl)cc3)OC(=O)c3ccccc32)CC1 (stereo not drawn) | 106 | Active | 125 | 141 | 99.8 |  |  |  |  |  |  |  | 
15 | CCN(CC)CC1(c2ccc(C)cc2)OC(=O)c2ccccc21 (stereo not drawn) | 106 | Active | 123 | 160 | 101 |  |  |  |  |  |  |  | 
16 | CCN(CC)CC1(c2ccccc2)OC(=O)c2ccccc21 (stereo not drawn) | 113 | Active | 125 | 127 | 106 |  |  |  |  |  |  |  | 
17 | CCOC(=O)C1CCN(CC2(c3ccc(Cl)cc3)OC(=O)c3ccccc32)CC1 (stereo not drawn) | 97 | inactive | 96.4 | 99 | 99 |  |  |  |  |  |  |  | 
18 | C[C@@H](NC(=O)[C@@H](N)Cc1ccc(O)cc1)C(=O)NCC(=O)N(C)[C@@H](Cc1ccccc1)C(=O)NCCO |  |  |  |  |  |  |  |  |  |  |  |  | Active
19 | Cc1ccc(C2(CN3CCCCC3)OC(=O)c3ccccc32)cc1 (stereo not drawn) | 98.4 | Active | 99 | 108 | 101 |  |  |  |  |  |  |  | 
20 | O=C1OC(CN2CCCCC2)(c2ccccc2)c2ccccc21 (stereo not drawn) | 102 | Active | 118 | 112 | 99.2 |  |  |  |  |  |  |  | 
21 | O=C1OC(CN2CCCCCC2)(c2ccccc2)c2ccccc21 (stereo not drawn) | 101 | Active; Activity Stronger Than Fluoxetine | 95.5 | 100 | 97.8 |  |  | inactive | inactive | inactive | inactive |  | 
22 | Cc1ccc(C2(CN3CCCCCC3)OC(=O)c3ccccc32)cc1 (stereo not drawn) | 106 | inactive | 140 | 171 | 98.8 |  |  |  |  |  |  |  | 
